# Laboratory results reported in the Kinase Knowledgebase extract (Sharma et al. 2016).
# Biological target: MAPK14 (human) (UniProt Q16539)
# Assay: Inhibition of MAPK14 Kinase Activity
# Chain of MAPK14 (human) (Q16539 whole entry, looked up): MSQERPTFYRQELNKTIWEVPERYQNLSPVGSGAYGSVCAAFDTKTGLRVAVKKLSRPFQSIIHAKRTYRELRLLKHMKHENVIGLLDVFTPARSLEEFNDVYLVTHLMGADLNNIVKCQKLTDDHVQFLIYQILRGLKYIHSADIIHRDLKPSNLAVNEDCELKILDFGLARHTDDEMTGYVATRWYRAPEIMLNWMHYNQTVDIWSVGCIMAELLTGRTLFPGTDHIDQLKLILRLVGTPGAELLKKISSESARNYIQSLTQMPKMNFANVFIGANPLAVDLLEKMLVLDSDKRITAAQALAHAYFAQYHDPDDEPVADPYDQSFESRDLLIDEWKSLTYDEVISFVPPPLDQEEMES
row,SMILES,IC50 [µM]
1,CN1CC(Cc2ccc(F)cc2F)CN(c2c(Cl)ccc(O)c2Cl)C1=O (stereo not given),≤ 10
2,O=C1CSC(Cc2ccc(F)cc2F)CN1c1c(Cl)ccc(CO)c1Cl (stereo not given),≤ 10
3,Nc1ccc(Cl)c(N2CC(Cc3ccc(F)cc3F)CSC2=O)c1Cl (stereo not given),≤ 10
4,COc1ccc(CC2COC(=O)N(c3c(Cl)cccc3Cl)C2)cc1 (stereo not given),≤ 10
5,CCOC(=O)CN(C(=O)OC(C)(C)C)c1cc(Cl)c(N2CC(Cc3ccc(F)cc3F)CCC2=O)c(Cl)c1 (stereo not given),≤ 10
6,O=C1CCC(Cc2ccc(F)cc2)CN1c1c(Cl)csc1Cl (stereo not given),≤ 10
7,CC(=O)Nc1ccc(Cl)c(N2CC(Cc3ccc(F)cc3F)SCC2=O)c1Cl (stereo not given),≤ 10
8,Cc1cc(/C=C/C(=O)O)cc(C)c1N1CC(Cc2ccc(F)cc2F)CCC1=O (stereo not given),≤ 10
9,NC(=O)C[C@H](N)C(=O)Nc1cc(Cl)c(N2CC(Cc3ccc(F)cc3F)CCC2=O)c(Cl)c1 (stereo not given in full),≤ 10
10,CC(=O)Nc1ccc(Cl)c(N2CC(Cc3ccc(F)cc3F)CN(C)C2=O)c1Cl (stereo not given),≤ 10
11,COC(=O)/C=C/c1cc(C)c(N2CC(Cc3ccc(F)cc3F)CCC2=O)c(C)c1 (stereo not given),≤ 10
12,CNc1ccc(Cl)c(N2CC(Cc3ccc(F)cc3F)CSC2=O)c1Cl (stereo not given),≤ 10
13,Cc1ccc(SC2CCC(=O)N(C3C(Cl)CCCC3Cl)C2)c(C)c1 (stereo not given),≤ 10
14,CN1CC(Cc2ccc(F)cc2F)CN(c2c(Cl)cc(NC(=O)Cc3ccccc3)cc2Cl)C1=O (stereo not given),≤ 10
15,Cc1cc(C)cc(CC2CNC(=O)N(c3c(Cl)cccc3Cl)C2)c1 (stereo not given),≤ 10
16,O=C1CCC(Cc2ccc(F)cc2F)CN1c1c(Cl)cc(N2C(=O)CCC2=O)cc1Cl (stereo not given),≤ 10
17,CC(=O)Nc1ccc(Cl)c(N2CC(Cc3ccc(F)cc3F)OCC2=O)c1Cl (stereo not given),≤ 10
18,O=C1OCC(Cc2ccc(F)cc2)CN1c1c(Cl)cccc1Cl (stereo not given),≤ 10
19,Cc1ccc(CC2COC(=O)N(c3c(Cl)cccc3Cl)C2)cc1 (stereo not given),≤ 10
20,O=C1CCC(Oc2cc(F)cc(F)c2)CN1C1C(Cl)CCCC1Cl (stereo not given),≤ 10
21,Cc1cc(C)cc(CC2CN(c3c(Cl)cccc3Cl)C(=O)CS2)c1 (stereo not given),≤ 10
22,Cc1ccc(SC2CCC(=O)N(c3c(Cl)csc3Cl)C2)c(C)c1 (stereo not given),≤ 10
23,O=C(O)CCCC(=O)Nc1cc(Cl)c(N2CC(Cc3ccc(F)cc3F)CCC2=O)c(Cl)c1 (stereo not given),≤ 10
24,CN1CCN(c2cc(Cl)c(N3CC(Cc4ccc(F)cc4F)CCC3=O)c(Cl)c2)CC1 (stereo not given),≤ 10
25,Cc1cc(Br)cc(C)c1N1CC(Cc2ccc(F)cc2F)CCC1=O (stereo not given),≤ 10

row,SMILES,IC50 [µM]
1,O=C1CSC(Cc2cccc3ccccc23)CN1c1c(Cl)cccc1Cl (stereo not given),≤ 10
2,O=C1CCC(Oc2ccccc2Cl)CN1c1c(Cl)cncc1Cl (stereo not given),≤ 10
3,O=C1CCC(Sc2ccc(F)cc2F)CN1C1C(Cl)CCC(O)C1Cl (stereo not given),≤ 10
4,COc1ccccc1OC1CCC(=O)N(c2c(Cl)ccnc2Cl)C1 (stereo not given),≤ 10
5,O=C1OCC(Cc2ccc(F)cc2F)CN1c1c(Cl)ccc(O)c1Cl (stereo not given),≤ 10
6,O=C(Cc1ccccc1)Nc1ncc(Cl)c(N2CC(Sc3ccc(F)cc3F)CCC2=O)c1Cl (stereo not given),≤ 10
7,O=C(Cc1ccccc1)NC1CCC(Cl)C(N2CC(Oc3ccc(F)cc3F)CCC2=O)C1Cl (stereo not given),≤ 10
8,O=C1CCC(Sc2ccc(F)cc2F)CN1C1C(Cl)CC(O)CC1Cl (stereo not given),≤ 10
9,Cc1cc(C)cc(CC2CN(C)C(=O)N(c3c(Cl)cccc3Cl)C2)c1 (stereo not given),≤ 10
10,CNc1sc(Cl)c(N2CC(Cc3ccc(F)cc3F)CCC2=O)c1Cl (stereo not given),≤ 10
11,CNC1CCC(Cl)C(N2CC(Oc3ccc(F)cc3F)CCC2=O)C1Cl (stereo not given),≤ 10
12,O=C(Cc1ccccc1)Nc1sc(Cl)c(N2CC(Oc3ccc(F)cc3F)CCC2=O)c1Cl (stereo not given),≤ 10
13,Cc1ccccc1CC1CN(c2c(Cl)cccc2Cl)C(=O)CS1 (stereo not given),≤ 10
14,COc1ccccc1OC1CCC(=O)N(C2C(Cl)CCCC2Cl)C1 (stereo not given),≤ 10
15,CNC1CC(Cl)C(N2CC(Oc3ccc(F)cc3F)CCC2=O)C(Cl)C1 (stereo not given),≤ 10
16,COc1ccccc1OC1CCC(=O)N(c2c(Cl)csc2Cl)C1 (stereo not given),≤ 10
17,O=C1CCC(Oc2ccc3ccccc3c2)CN1c1c(Cl)csc1Cl (stereo not given),≤ 10
18,O=C(Cc1ccccc1)Nc1cc(Cl)c(N2CC(Cc3ccc(F)cc3F)CNC2=O)c(Cl)c1 (stereo not given),≤ 10
19,Nc1ccc(Cl)c(N2CC(Cc3ccc(F)cc3F)SCC2=O)c1Cl (stereo not given),≤ 10
20,O=C1COC(Cc2ccc(F)cc2F)CN1c1c(Cl)cc(O)cc1Cl (stereo not given),≤ 10
21,O=C(CNc1cc(Cl)c(N2CC(Cc3ccc(F)cc3F)CCC2=O)c(Cl)c1)NO (stereo not given),≤ 10
22,Cc1ccc(OC2CCC(=O)N(c3c(Cl)ccnc3Cl)C2)cc1 (stereo not given),≤ 10
23,CN1CC(Cc2ccc(F)cc2F)CN(c2c(Cl)ccc(N)c2Cl)C1=O (stereo not given),≤ 10
24,O=C1CCC(Sc2ccc3ccccc3c2)CN1c1c(Cl)csc1Cl (stereo not given),≤ 10
25,Cc1ccccc1SC1CCC(=O)N(c2c(Cl)cncc2Cl)C1 (stereo not given),≤ 10

row,SMILES,IC50 [µM]
1,O=C(Cc1ccccc1)NC1CC(Cl)C(N2CC(Cc3ccc(F)cc3F)CCC2=O)C(Cl)C1 (stereo not given),≤ 10
2,COc1ccc(CC2CSC(=O)N(c3c(Cl)cccc3Cl)C2)cc1 (stereo not given),≤ 10
3,Cc1cc(N)cc(C)c1N1CC(Cc2ccc(F)cc2F)CCC1=O (stereo not given),≤ 10
4,CN1CCN(C(=O)CNc2cc(Cl)c(N3CC(Cc4ccc(F)cc4F)CCC3=O)c(Cl)c2)CC1 (stereo not given),≤ 10
5,O=C(Cc1ccccc1)Nc1cc(Cl)c(N2CC(Cc3ccc(F)cc3F)OCC2=O)c(Cl)c1 (stereo not given),≤ 10
6,C[C@@H]1C[C@H](Cc2ccc(F)cc2F)CN(c2c(Cl)cc(NCCN(C)C)cc2Cl)C1=O,≤ 10
7,Cc1ccccc1SC1CCC(=O)N(C2C(Cl)CCCC2Cl)C1 (stereo not given),≤ 10
8,Cc1ccc(CC2CNC(=O)N(c3c(Cl)cccc3Cl)C2)c(C)c1 (stereo not given),≤ 10
9,O=C1SCC(Cc2ccc(F)cc2F)CN1c1c(Cl)cc(CO)cc1Cl (stereo not given),≤ 10
10,Cc1cc2c(cc1NC(=O)NCc1ccccc1CC1CCC(=O)N(c3c(Cl)cccc3Cl)C1)C(C)(C)CCC2 (stereo not given),≤ 10
11,O=C(N[C@H]1C[C@H](Cc2ccc(F)cc2F)CN(c2c(Cl)cccc2Cl)C1=O)OCc1ccccc1,≤ 10
12,Cc1cc(CCCCC=O)cc(C)c1N1CC(Cc2ccc(F)cc2F)CCC1=O (stereo not given),≤ 10
13,O=C1CSC(Cc2ccc(Cl)cc2)CN1c1c(Cl)cccc1Cl (stereo not given),≤ 10
14,O=C(Cc1ccccc1)Nc1cc(Cl)c(N2CC(Cc3ccc(F)cc3F)CCC2=O)c(Cl)c1 (stereo not given),≤ 10
15,O=C1CCC(Sc2ccc(Cl)cc2Cl)CN1c1c(Cl)ccnc1Cl (stereo not given),≤ 10
16,O=C1OCCN1c1cc(Cl)c(N2CC(Cc3ccc(F)cc3F)CCC2=O)c(Cl)c1 (stereo not given),≤ 10
17,Cc1cc(C)cc(CC2CCC(=O)N(C3C(Cl)CCCC3Cl)C2)c1 (stereo not given),≤ 10
18,COCCOCOc1ccccc1CC1CCC(=O)N(c2c(C)cccc2C)C1 (stereo not given),≤ 10
19,O=C1CCC(Cc2ccc(F)cc2F)CN1c1nccs1 (stereo not given),≤ 10
20,O=C1CCC(Cc2cccc3ccccc23)CN1C1C(Cl)CCCC1Cl (stereo not given),≤ 10
21,Cc1cc(CCCCN(C)C)cc(C)c1N1CC(Cc2ccc(F)cc2F)CCC1=O (stereo not given),≤ 10
22,Cc1cc(C(=O)N(C)C)cc(C)c1N1CC(Cc2ccc(F)cc2F)CCC1=O (stereo not given),≤ 10
23,Cc1cc(C#CCCN2CCN(C)CC2)cc(C)c1N1CC(Cc2ccc(F)cc2F)CCC1=O (stereo not given),≤ 10
24,O=C1CCC(Cc2ccc(F)cc2F)CN1c1ccccc1CCO (stereo not given),≤ 10

# Second part, the compound after the results:
row,IC50 [µM],SMILES
1,≤ 10,Cc1ccc(OC2CCC(=O)N(c3c(Cl)cccc3Cl)C2)c(C)c1 (stereo not given)
2,≤ 10,CC(=O)Nc1cc(Cl)c(N2CC(Cc3ccc(F)cc3F)CCC2=O)c(Cl)n1 (stereo not given)
3,≤ 10,Cc1ccccc1OC1CCC(=O)N(c2c(Cl)cccc2Cl)C1 (stereo not given)
4,≤ 10,O=C1CCC(Sc2ccc(F)cc2F)CN1c1c(Cl)ccc(CO)c1Cl (stereo not given)
5,≤ 10,CNc1ncc(Cl)c(N2CC(Sc3ccc(F)cc3F)CCC2=O)c1Cl (stereo not given)
6,≤ 10,C[C@@H]1C[C@H](Cc2ccc(F)cc2F)CN(c2c(Cl)cccc2Cl)C1=O
7,≤ 10,COC(c1ccc(F)cc1F)C1CCC(=O)N(c2c(Cl)cccc2Cl)C1 (stereo not given)
8,≤ 10,Nc1ccc(Cl)c(N2CC(Cc3ccc(F)cc3F)CCC2=O)c1 (stereo not given)
9,≤ 10,O=C1CCC(Cc2ccc(F)cc2F)CN1c1c(Cl)cc(CO)nc1Cl (stereo not given)
10,≤ 10,Nc1cc(Cl)c(N2CC(Sc3ccc(F)cc3F)CCC2=O)c(Cl)c1 (stereo not given)
11,≤ 10,O=C1CCC(Cc2ccc(F)cc2F)(Cc2ccc(F)cc2F)CN1c1c(Cl)cccc1Cl
12,≤ 10,O=C1COC(Cc2ccc(F)cc2F)CN1c1c(Cl)cccc1Cl (stereo not given)
13,≤ 10,N#CCCc1cc(Cl)c(N2CC(Cc3ccc(F)cc3F)CCC2=O)c(Cl)c1 (stereo not given)
14,≤ 10,COC(=O)/C=C/c1ccccc1CC1CCC(=O)N(c2c(Cl)cccc2Cl)C1 (stereo not given)
15,≤ 10,O=C1CCC(Oc2cc(F)cc(F)c2)CN1c1c(Cl)cccc1Cl (stereo not given)
16,≤ 10,O=C1CCC(Sc2ccc(F)cc2F)CN1c1c(Cl)sc(CO)c1Cl (stereo not given)
17,≤ 10,O=C(Cc1ccccc1)Nc1ccc(Cl)c(N2CC(Oc3ccc(F)cc3F)CCC2=O)c1Cl (stereo not given)
18,≤ 10,O=C1CCC(Cc2ccc(Cl)cc2Cl)CN1c1c(Cl)cccc1Cl (stereo not given)

row,IC50 [µM],SMILES
1,≤ 10,N#C/C=C/c1cc(Cl)c(N2CC(Cc3ccc(F)cc3F)CCC2=O)c(Cl)c1 (stereo not given)
2,≤ 10,O=C1CCC(Sc2ccc3ccccc3c2)CN1c1c(Cl)cccc1Cl (stereo not given)
3,≤ 20,O=C1CCC(Oc2ccccc2F)CN1c1c(Cl)cncc1Cl (stereo not given)
4,≤ 10,O=C1CSC(Cc2cc(F)cc(F)c2)CN1c1c(Cl)cccc1Cl (stereo not given)
5,≤ 10,COC(=O)c1cc(C)c(N2CC(Cc3ccc(F)cc3F)CCC2=O)c(Cl)c1 (stereo not given)
6,≤ 10,CC(=O)Nc1sc(Cl)c(N2CC(Oc3ccc(F)cc3F)CCC2=O)c1Cl (stereo not given)
7,≤ 10,COc1ccc(OC2CCC(=O)N(c3c(Cl)cccc3Cl)C2)cc1 (stereo not given)
8,≤ 10,Nc1ccc(Cl)c(N2CC(Sc3ccc(F)cc3F)CCC2=O)c1Cl (stereo not given)
9,≤ 10,O=C1CCC(Oc2ccc(F)cc2F)CN1c1c(Cl)cnc(CO)c1Cl (stereo not given)
10,≤ 10,Nc1ncc(Cl)c(N2CC(Sc3ccc(F)cc3F)CCC2=O)c1Cl (stereo not given)
11,≤ 10,CCc1ccc(CC2CCC(=O)N(c3c(Cl)cccc3Cl)C2)cc1 (stereo not given)
12,≤ 10,CNc1ccc(Cl)c(N2CC(Cc3ccc(F)cc3F)CCC2=O)c1Cl (stereo not given)
13,≤ 10,O=C1CCC(Oc2ccc(F)cc2F)CN1c1c(Cl)ncc(CO)c1Cl (stereo not given)
14,≤ 10,CNc1sc(Cl)c(N2CC(Oc3ccc(F)cc3F)CCC2=O)c1Cl (stereo not given)
15,≤ 10,O=C1CCC(C(=NO)c2ccc(F)cc2F)CN1c1c(Cl)cccc1Cl (stereo not given)
16,≤ 10,O=C1CCC(Cc2ccccc2F)CN1c1c(Cl)cccc1Cl (stereo not given)
17,≤ 10,O=C1CCC(Cc2ccc(F)cc2F)CN1c1c(Cl)cc(O)cc1Cl (stereo not given)
18,≤ 10,Cc1ccc(CC2CN(c3c(Cl)cccc3Cl)C(=O)CS2)c(C)c1 (stereo not given)
